From patent US10604555B2, “GIP derivatives and uses thereof” (priority 2018, dated 2020)
*1 amine or outer side, *2 acyl side, *3 side chain or, on linkers, in order; H or OH if unused. Where a SMILES comes first, the peptide text is derived from it. Side-chain parts run from the residue outwards. [ ]: non-standard residue; d: D form. The star is where a group is joined. C18 diacid = O=C(O)CCCCCCCCCCCCCCCCC(=O)*; γGlu = O=C(O)[C@H](CCC(=O)[*:2])N[*:1]; Nle = CCCC[C@H](N)C(=O)O; Aib = CC(C)(N)C(=O)O

Biological target: T1, human GIP receptor (Homo sapiens, UniProt P48546)
T1 construct: expressed in transfected cells; host or cells: BHK (parent line BHKTS13), BHK CRE luc2P hGIPR clone #5
T1 sequence (P48546 22-466): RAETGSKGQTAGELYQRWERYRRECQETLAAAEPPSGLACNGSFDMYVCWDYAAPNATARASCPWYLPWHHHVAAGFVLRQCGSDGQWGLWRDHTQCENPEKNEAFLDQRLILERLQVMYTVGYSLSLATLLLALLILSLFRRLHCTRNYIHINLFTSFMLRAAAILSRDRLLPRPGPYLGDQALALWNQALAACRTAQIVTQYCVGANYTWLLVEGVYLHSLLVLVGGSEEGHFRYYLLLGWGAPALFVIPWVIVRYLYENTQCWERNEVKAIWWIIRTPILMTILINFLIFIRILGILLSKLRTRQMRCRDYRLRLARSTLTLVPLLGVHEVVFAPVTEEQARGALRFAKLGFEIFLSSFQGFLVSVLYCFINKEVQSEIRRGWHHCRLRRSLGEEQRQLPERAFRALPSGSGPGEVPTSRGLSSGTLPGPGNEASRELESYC
Test: In vitro potency (CRE luciferase; whole cells), BHK CRE luc2P hGIPR
Type: cell-based
Conditions: 0.2% HSA
Procedure: In Vitro Potency (CRE Luciferase; Whole Cells)
The in vitro potency is the measure of human GIP, GLP-1 or glucagon receptor activation, respectively, in a whole cell assay.
In vitro potency was determined by measuring the response of the human GIP, GLP-1 or glucagon receptor in a reporter gene assay in individual cell lines. […] When the respective receptor is activated it results in the production of cAMP, which in turn results in the luciferase protein being expressed. When assay incubation is completed the luciferase substrate (luciferin) is added and the enzyme converts luciferin to oxyluciferin to produce bioluminescence. The luminescence is measured as the readout for the assay.
The cells were derived from a clone containing the CRE luciferase element and were established by further transfection with the respective receptor to obtain the current clone.
The cells were cultured at 5% CO2 in Cell Culture Medium. They were aliquoted and stored in liquid nitrogen. The cells were kept in passage and were seeded out the day before each assay.
The Assay Buffer consisted of 1% ovalbumin and 0.1% Pluronic F-68 in Assay Medium with the addition of human serum albumin at twice the indicated concentrations.
1) Cells were plated at 5000 cells/well and incubated overnight.
2) Cells were washed three times in PBS.
3) Assay Medium (50 μl aliquot) with or without serum albumin was added to each well in the assay plate.
4) Stocks of the test compounds and reference compounds were diluted to a concentration of 0.2 μM in Assay Buffer. […] 8) The cells were washed three times with PBS plus some liquid in each well. 9) A 100 μl aliquot of steadylite plus reagent was added to each well of the assay plate (reagent was light sensitive). 10) Each assay plate was covered with aluminum foil to protect it from light and shaken for 30 min at room temperature. 11) Each assay plate was read in a microtiter plate reader. Calculations and Results
The data from the microtiter plate reader was transferred to GraphPad Prism software. The software performs a non-linear regression (log(agonist) vs response).
A minimum of two replicates was measured for each sample. The reported values are averages of the replicates.

EC50 | SMILES
0.0725 nM | CCCC[C@H](NC(=O)[C@H](C)NC(=O)[C@@H](NC(=O)[C@H](CO)NC(=O)[C@H](Cc1ccc(O)cc1)NC(=O)[C@H](CC(=O)O)NC(=O)[C@H](CO)NC(=O)[C@@H](NC(=O)[C@H](Cc1ccccc1)NC(=O)[C@@H](NC(=O)CNC(=O)[C@H](CCC(=O)O)NC(=O)C(C)(C)NC(=O)[C@@H](N)Cc1ccc(O)cc1)[C@@H](C)O)[C@@H](C)CC)[C@@H](C)CC)C(=O)N[C@@H](CC(=O)O)C(=O)N[C@@H](C)C(=O)N[C@H](C(=O)N[C@@H](CCCNC(=N)N)C(=O)N[C@@H](CCC(N)=O)C(=O)N[C@@H](CCC(N)=O)C(=O)N[C@@H](CC(=O)O)C(=O)N[C@@H](Cc1ccccc1)C(=O)N[C@H](C(=O)N[C@@H](CCCCNC(=O)CC[C@H](NC(=O)CC[C@H](NC(=O)CC[C@H](NC(=O)CCCCCCCCCCCCCCCCC(=O)O)C(=O)O)C(=O)O)C(=O)O)C(=O)N[C@@H](Cc1c[nH]c2ccccc12)C(=O)N[C@@H](CC(C)C)C(=O)N[C@@H](CC(C)C)C(=O)N[C@@H](C)C(=O)N[C@@H](CCC(N)=O)C(=O)N[C@@H](CCCCN)C(=O)NCC(=O)O)C(C)C)[C@@H](C)CC [Compound 13, N{Epsilon-24}-[(4S)-4-carboxy-4-[[(4S)-4-carboxy-4-[[(4S)-4-carboxy-4-(17-carboxyheptadecanoylamino)butanoyl]amino]butanoyl]amino]butanoyl]-[Aib2,Nle14,Ala16,Arg18,Lys24]-hGIP(1-31)] (H-Y[Aib]EGTFISDYSIA[Nle]DAIRQQDFVK([γGlu-γGlu-γGlu-C18 diacid])WLLAQKG-OH; N-terminus and C-terminus assumed)
0.546 nM | CCCC[C@H](NC(=O)[C@H](C)NC(=O)[C@@H](NC(=O)[C@H](CO)NC(=O)[C@H](Cc1ccc(O)cc1)NC(=O)[C@H](CC(=O)O)NC(=O)[C@H](CO)NC(=O)[C@@H](NC(=O)[C@H](Cc1ccccc1)NC(=O)[C@@H](NC(=O)CNC(=O)[C@H](CCC(=O)O)NC(=O)[C@H](C)NC(=O)[C@H](Cc1ccc(O)cc1)NC(C)=O)[C@@H](C)O)[C@@H](C)CC)[C@@H](C)CC)C(=O)N[C@@H](CC(=O)O)C(=O)N[C@@H](CCCCN)C(=O)N[C@H](C(=O)N[C@@H](CCCNC(=N)N)C(=O)N[C@@H](CCC(N)=O)C(=O)N[C@@H](CCC(N)=O)C(=O)N[C@@H](CC(=O)O)C(=O)N[C@@H](Cc1ccccc1)C(=O)N[C@H](C(=O)N[C@@H](CCCCNC(=O)CC[C@H](NC(=O)CC[C@H](NC(=O)CC[C@H](NC(=O)CCCCCCCCCCCCCCCCC(=O)O)C(=O)O)C(=O)O)C(=O)O)C(=O)N[C@@H](Cc1c[nH]c2ccccc12)C(=O)N[C@@H](CC(C)C)C(=O)N[C@@H](CC(C)C)C(=O)N[C@@H](C)C(=O)N[C@@H](CCC(N)=O)C(=O)N[C@@H](CCCCN)C(=O)NCC(=O)O)C(C)C)[C@@H](C)CC [Compound 18, N{1}-acetyl,N{Epsilon-24}-[(4S)-4-carboxy-4-[[(4S)-4-carboxy-4-[[(4S)-4-carboxy-4-(17-carboxyheptadecanoylamino)butanoyl]amino]butanoyl]amino]butanoyl]-[Nle14,Arg18,Lys24]-hGIP(1-31)]
0.0629 nM | CCCC[C@H](NC(=O)[C@H](C)NC(=O)[C@@H](NC(=O)[C@H](CO)NC(=O)[C@H](Cc1ccc(O)cc1)NC(=O)[C@H](CC(=O)O)NC(=O)[C@H](CO)NC(=O)[C@@H](NC(=O)[C@H](Cc1ccccc1)NC(=O)[C@@H](NC(=O)CNC(=O)[C@H](CCC(=O)O)NC(=O)C(C)(C)NC(=O)[C@@H](N)Cc1ccc(O)cc1)[C@@H](C)O)[C@@H](C)CC)[C@@H](C)CC)C(=O)N[C@@H](CC(=O)O)C(=O)N[C@@H](CCCCN)C(=O)N[C@H](C(=O)N[C@@H](CCCNC(=N)N)C(=O)N[C@@H](CCC(N)=O)C(=O)N[C@@H](CCC(=O)O)C(=O)N[C@@H](CC(=O)O)C(=O)N[C@@H](Cc1ccccc1)C(=O)N[C@H](C(=O)N[C@@H](CCCCNC(=O)CC[C@H](NC(=O)CC[C@H](NC(=O)CC[C@H](NC(=O)CCCCCCCCCCCCCCCCC(=O)O)C(=O)O)C(=O)O)C(=O)O)C(=O)N[C@@H](Cc1c[nH]c2ccccc12)C(=O)N[C@@H](CC(C)C)C(=O)N[C@@H](CC(C)C)C(=O)N[C@@H](C)C(=O)N[C@@H](CCC(N)=O)C(=O)N[C@@H](CCCCN)C(=O)NCC(=O)O)C(C)C)[C@@H](C)CC [Compound 9, N{Epsilon-24}-[(4S)-4-carboxy-4-[[(4S)-4-carboxy-4-[[(4S)-4-carboxy-4-(17-carboxyheptadecanoylamino)butanoyl]amino]butanoyl]amino]butanoyl]-[Aib2,Nle14,Arg18,Glu20,Lys24]-hGIP(1-31)] (H-Y[Aib]EGTFISDYSIA[Nle]DKIRQEDFVK([γGlu-γGlu-γGlu-C18 diacid])WLLAQKG-OH; N-terminus and C-terminus assumed)
0.025 nM | CCCC[C@H](NC(=O)[C@H](C)NC(=O)[C@@H](NC(=O)[C@H](CO)NC(=O)[C@H](Cc1ccc(O)cc1)NC(=O)[C@H](CC(=O)O)NC(=O)[C@H](CO)NC(=O)[C@@H](NC(=O)[C@H](Cc1ccccc1)NC(=O)[C@@H](NC(=O)CNC(=O)[C@H](CCC(=O)O)NC(=O)[C@H](C)NC(=O)[C@@H](Cc1ccc(O)cc1)NC(C)=O)[C@@H](C)O)[C@@H](C)CC)[C@@H](C)CC)C(=O)N[C@@H](CC(=O)O)C(=O)N[C@@H](CCCCN)C(=O)N[C@H](C(=O)N[C@@H](CCCNC(=N)N)C(=O)N[C@@H](CCC(N)=O)C(=O)N[C@@H](CCC(=O)O)C(=O)N[C@@H](CC(=O)O)C(=O)N[C@@H](Cc1ccccc1)C(=O)N[C@H](C(=O)N[C@@H](CCCCNC(=O)COCCOCCNC(=O)COCCOCCNC(=O)CC[C@H](NC(=O)CCCCCCCCCCCCCCCCC(=O)O)C(=O)O)C(=O)N[C@@H](Cc1c[nH]c2ccccc12)C(=O)N[C@@H](CC(C)C)C(=O)N[C@@H](CC(C)C)C(=O)N[C@@H](C)C(=O)N[C@@H](CCC(N)=O)C(=O)N[C@@H](CCCCN)C(=O)NCC(=O)O)C(C)C)[C@@H](C)CC [Compound 16, N{1}-acetyl,N{Epsilon-24}-[2-[2-[2-[[2-[2-[2-[[(4S)-4-carboxy-4-(17-carboxy-heptadecanoylamino)butanoyl]amino]ethoxy]ethoxy]acetyl]amino]ethoxy]ethoxy]acetyl]-[D-Tyr1,Nle14,Arg18,Glu20,Lys24]-hGIP(1-31)]
0.158 nM | CCCC[C@H](NC(=O)[C@H](C)NC(=O)[C@@H](NC(=O)[C@H](CO)NC(=O)[C@H](Cc1ccc(O)cc1)NC(=O)[C@H](CC(=O)O)NC(=O)[C@H](CO)NC(=O)[C@@H](NC(=O)[C@H](Cc1ccccc1)NC(=O)[C@@H](NC(=O)CNC(=O)[C@H](CCC(=O)O)NC(=O)C(C)(C)NC(=O)[C@@H](N)Cc1ccc(O)cc1)[C@@H](C)O)[C@@H](C)CC)[C@@H](C)CC)C(=O)N[C@@H](CC(=O)O)C(=O)N[C@@H](CCCCN)C(=O)N[C@H](C(=O)N[C@@H](Cc1c[nH]cn1)C(=O)N[C@@H](CCC(N)=O)C(=O)N[C@@H](CCC(=O)O)C(=O)N[C@@H](CC(=O)O)C(=O)N[C@@H](Cc1ccccc1)C(=O)N[C@H](C(=O)N[C@@H](CCCCNC(=O)CC[C@H](NC(=O)CC[C@H](NC(=O)CC[C@H](NC(=O)CC[C@H](NC(=O)CCCCCCCCCCCCCCCCC(=O)O)C(=O)O)C(=O)O)C(=O)O)C(=O)O)C(=O)N[C@@H](Cc1c[nH]c2ccccc12)C(=O)N[C@@H](CC(C)C)C(=O)N[C@@H](CC(C)C)C(=O)N[C@@H](C)C(=O)N[C@@H](CCC(N)=O)C(=O)N[C@@H](CCCCN)C(=O)NCC(=O)O)C(C)C)[C@@H](C)CC [Compound 20, N{Epsilon-24}-[(4S)-4-carboxy-4-[[(4S)-4-carboxy-4-[[(4S)-4-carboxy-4-[[(4S)-4-carboxy-4-(17-carboxyheptadecanoylamino)butanoyl]amino]butanoyl]amino]butanoyl]-amino]butanoyl]-[Aib2,Nle14,Glu20,Lys24]-hGIP(1-31)] (H-Y[Aib]EGTFISDYSIA[Nle]DKIHQEDFVK([γGlu-γGlu-γGlu-γGlu-C18 diacid])WLLAQKG-OH; N-terminus and C-terminus assumed)
